Test results reported in ChEMBL document CHEMBL1144155, “Synthesis of 3-alkyl naphthalenes as novel estrogen receptor ligands” (Bioorg Med Chem Lett, 2008).
pKi: −log10 of the molar value.

Tests used:
Estrogen receptor = target: T1, Estrogen receptor (Homo sapiens, UniProt P03372)
T1 sequence (P03372 whole entry): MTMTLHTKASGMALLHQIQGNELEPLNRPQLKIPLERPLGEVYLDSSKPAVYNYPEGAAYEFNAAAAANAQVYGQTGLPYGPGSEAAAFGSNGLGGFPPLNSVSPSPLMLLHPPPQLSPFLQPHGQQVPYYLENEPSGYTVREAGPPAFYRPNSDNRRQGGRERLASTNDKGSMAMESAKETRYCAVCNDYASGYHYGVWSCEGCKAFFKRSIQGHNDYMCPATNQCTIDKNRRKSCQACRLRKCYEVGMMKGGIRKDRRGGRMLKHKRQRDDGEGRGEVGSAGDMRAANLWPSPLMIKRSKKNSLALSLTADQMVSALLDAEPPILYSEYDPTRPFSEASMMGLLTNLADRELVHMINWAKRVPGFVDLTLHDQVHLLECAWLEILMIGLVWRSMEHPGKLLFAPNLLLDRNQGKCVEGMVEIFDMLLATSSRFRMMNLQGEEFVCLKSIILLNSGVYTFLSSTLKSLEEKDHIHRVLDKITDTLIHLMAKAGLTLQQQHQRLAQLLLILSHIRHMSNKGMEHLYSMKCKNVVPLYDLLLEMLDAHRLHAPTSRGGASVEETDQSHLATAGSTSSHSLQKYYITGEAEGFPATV

Estrogen receptor beta = Estrogen receptor beta (Homo sapiens, UniProt Q92731)
Sequence of Estrogen receptor beta (Q92731 whole entry): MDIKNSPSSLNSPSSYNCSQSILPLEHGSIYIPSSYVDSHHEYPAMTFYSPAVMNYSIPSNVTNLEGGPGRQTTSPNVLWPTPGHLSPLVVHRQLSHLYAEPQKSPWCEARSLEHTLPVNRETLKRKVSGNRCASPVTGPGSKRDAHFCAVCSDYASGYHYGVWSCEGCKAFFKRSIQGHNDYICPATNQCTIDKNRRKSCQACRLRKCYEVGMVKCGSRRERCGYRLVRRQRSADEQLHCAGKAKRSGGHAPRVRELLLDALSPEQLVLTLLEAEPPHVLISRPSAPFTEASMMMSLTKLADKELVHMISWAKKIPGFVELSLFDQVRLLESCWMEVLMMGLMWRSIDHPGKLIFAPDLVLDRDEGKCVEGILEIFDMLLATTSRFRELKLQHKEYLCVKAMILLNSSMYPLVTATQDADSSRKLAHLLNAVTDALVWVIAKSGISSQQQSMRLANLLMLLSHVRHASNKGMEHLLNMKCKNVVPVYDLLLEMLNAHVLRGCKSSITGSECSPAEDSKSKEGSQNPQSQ

| SMILES | pKi (Estrogen receptor) | pKi (Estrogen receptor beta) |
| --- | --- | --- |
| CCCCCCCCc1cc2cc(O)ccc2c(Oc2ccc(/C=C/C(=O)O)cc2)c1-c1ccccc1 | 7.26 | 7.52 |
| CC(C)Cc1cc2cc(O)ccc2c(Oc2ccc(/C=C/C(=O)O)cc2)c1-c1ccccc1 | 7.55 | 7.66 |
| CCCCCc1cc2cc(O)ccc2c(Oc2ccc(/C=C/C(=O)O)cc2)c1-c1ccccc1 | 8.70 | 8.52 |
| O=C(O)/C=C/c1ccc(Oc2c(-c3ccccc3)c(C3CC3)cc3cc(O)ccc23)cc1 | 7.22 | 7.80 |
| CCCCc1cc2cc(O)ccc2c(Oc2ccc(/C=C/C(=O)O)cc2)c1-c1ccccc1 | 8.40 | 8.40 |
| CCCCc1cc2ccccc2c(Oc2ccc(/C=C/C(=O)O)cc2)c1-c1ccccc1 | 6.01 | 6.77 |
| CCCCc1cc2ccccc2c(Oc2ccc(/C=C/C(=O)O)cc2)c1-c1ccc(OC)cc1 | 6.80 | 6.79 |
| CCCCc1cc2ccccc2c(Oc2ccc(/C=C/C(=O)O)cc2)c1-c1ccc(O)cc1 | 7.28 | 7.32 |
| CCCCc1cc2ccccc2c(Oc2ccc(/C=C/C(=O)O)cc2)c1-c1ccc(F)cc1 | 6.14 | 6.96 |
| COCc1cc2ccccc2c(Oc2ccc(/C=C/C(=O)O)cc2)c1-c1ccccc1 | 6.16 | 6.30 |
